Measured values: US8835378B2, “Multi-domain amphipathic helical peptides and methods of their use” (The United States of America as represented by the …, priority 2004, dated 2014)
Entries after “also recorded” stand apart in the source; their conditions may differ. Where a SMILES comes first, the peptide text is derived from it. [ ]: non-standard residue; d: D form.

Key:
[1] = tested on: HeLa cells stably transfected with human ABCA1 cDNA (ABCA1 cells); experiment: Cholesterol and phospholipid efflux from ABCA1 transfected cells; format: cell-based
Description: (§1) Percentage efflux was calculated after subtracting the radioactive counts in the blank media (αMEM plus 1 mg/ml of BSA), and expressed as the percent of total radioactive counts removed from the cells during the efflux period.
(§2) Cell fixation was performed by a 10 minute treatment with 3% paraformaldehyde in phosphate buffered saline (PBS), followed by three washes with blank media. Lactate dehydrogenase (LDH) release from cells into the media was measured enzymatically (Roche Diagnostics, Indianapolis, Ind.) and expressed, after subtraction of LDH released into blank media, as the percentage of total cell LDH. Total cell LDH was determined after cell solubilization with 1% Triton X-100.

[2] = tested on: HeLa cells transfected with only a hygromycin-resistant control plasmid (control cells); experiment: Cholesterol and phospholipid efflux from control cells; format: cell-based, human; conditions: for cholesterol and phospholipid efflux from control cells (in words): 18 hours
Description: as §1, §2

Normal skin fibroblasts = experiment: Cholesterol efflux from normal skin fibroblasts; format: cell-based, human; conditions: 10 μg/ml, 18 hour
Description: (§3) FIG. 5 is a graph illustrating ABCA1-independent efflux of cholesterol from Tangier disease fibroblasts. Normal skin fibroblasts (open bars) and Tangier disease skin fibroblasts (solid bars) were examined for their ability to efflux cholesterol over an 18 hour period when treated with 10 μg/ml apoA-I (A), 10 μg/ml L-37pA (L), and 10 μg/ml D-37pA (D). Results are expressed as the mean of triplicates±1 SD.
(§4) In order to confirm that the residual lipid efflux from the control cells to L-37pA and D-37pA (see FIG. 1) was not due to a low level of endogenous ABCA1, a Tangier disease fibroblast cell line with a truncated non-functional ABCA1 transporter (Remaley et al., Proc. Natl. Acad. Sci. USA 96:12685-12690, 1999) was evaluated for lipid efflux (FIG. 5). […] Thromb. Vasc. Biol. 17:1813-1821, 1997.

[3] = tested on: Tangier disease fibroblast cell line with a truncated non-functional ABCA1 transporter; experiment: Cholesterol efflux from Tangier disease fibroblasts; format: cell-based, human; conditions: 10 μg/ml, 18 hour
Description: as §3, §4

ABCA1 cells [4] = experiment: Two-step competitive binding of radiolabled L-37pA to ABCA1 cells; set-up: species or system human; conditions: 8 μM, the maximum concentration tested; 4° C.
Description: FIGS. 7A-7B are a pair of graphs illustrating the competitive binding of L-37pA peptide to ABCA1 transfected cells and control cells. ABCA1 cells (FIG. 7A) and control cells (FIG. 7B) were incubated for 3 hours at 4° C. with the indicated concentration of the competitor proteins [L-37pA (triangle), D-37pA (open square), apoA-I (closed circle), L2D-37pA (star), and L3D-37pA (open circle)] and were then washed and incubated for 1 hour at 4° C. with 1 μg/ml of radiolabled L-37pA peptide. Results are expressed as the mean of triplicates±1 SD.
The L-37pA peptide was labeled with ^125I using iodine monochloride. Confluent cells grown on 12-well plates were incubated for 3 hours at 4° C. with the indicated concentration of the unlabeled competitor peptide in αMEM media plus 10 mg/ml of BSA (FIG. 7). […] Cells were washed three times, and cell bound counts were determined after solubilization with 0.1 N NaOH.
A two-step sequential competitive binding assay was performed in order to prevent any potentially interfering interaction of the radiolabled peptide with the competitor proteins (Mendez et al., J. Clin. Invest. 94:1698-1705, 1994). The cells were first incubated with the competitor proteins for 3 hours, washed, and then the cell binding of the radiolabled L-37 peptide was measured. […]

[5] = tested on: ABCA1 cells and control cells; experiment: Cell morphology by light microscopy during efflux experiments; format: cell-based, human
ABCA1 cells [6] = experiment: LDH release from ABCA1 cells; format: cell-based, human; conditions: 40 μg/ml for 18 hours
Description: as §2
(§5) Incubation of the cells with L-37pA and D-37pA at the maximum concentration and time used for the efflux studies (40 μg/ml for 18 hours) did, however, consistently result in the release of a small amount of LDH from both cell lines (control cells: L-37pA (6.1%±0.2), D-37pA (6.6%±0.1); ABCA1 cells: L-37pA (4.3%±0.04), D-37pA (5.7%±0.1)).

control cells = experiment: LDH release from control cells; format: cell-based, human; conditions: 40 μg/ml for 18 hours
Description: as §2, §5

Row | Compound | time at which cholesterol efflux from ABCA1 cells was first detectable ([1]; 10 μg/ml) [h] | effect of fixation of ABCA1 cells on cholesterol efflux (in words) ([1]; 10 μg/ml, 18 hours, fixation with 3% paraformaldehyde) | cholesterol and phospholipid efflux from ABCA1 cells (in words) ([1]; 18 hours) | protein concentration at which lipid efflux began to show saturation ([1]; 18 hours) [µg/mL] | molar concentration at which lipid efflux began to show saturation ([1]; corresponds to 10 μg/ml) [µM] | cholesterol efflux time course from control cells (in words) ([2]; 10 μg/ml, 30 hour efflux period) | cholesterol and phospholipid efflux from control cells (in words) [2] | cholesterol and phospholipid efflux from control cells (in words) ([2]; listed as apoA-1) | cholesterol efflux from normal fibroblasts (Normal skin fibroblasts) | cholesterol efflux from Tangier disease fibroblasts [3] | binding of labeled L-37pA to ABCA1 cells blocked by competitor (ABCA1 cells [4]) | effect on cell morphology [5] | LDH release from ABCA1 cells (percentage of total cell LDH) (ABCA1 cells [6]) | LDH release from control cells (percentage of total cell LDH) (control cells)
1 | apolipoprotein A-I [apoA-I] | 2 | completely blocked | do so after transfection with ABCA1 | ~10 | 0.36 | no significant increase above background | do not efflux significant amounts of cholesterol and phospholipid; also recorded: unable | did not cause lipid efflux from control cells | effluxed cholesterol | did not efflux significant amounts of cholesterol | approximately 30% | no morphologic effect was observed |  | 
2 | CC(C)C[C@H](NC(=O)[C@H](Cc1c[nH]c2ccccc12)NC(=O)[C@H](CC(=O)O)NC(=O)[C@@H]1CCCN1C(=O)[C@H](Cc1ccccc1)NC(=O)[C@H](C)NC(=O)[C@H](CCC(=O)O)NC(=O)[C@H](CCCCN)NC(=O)[C@H](CC(C)C)NC(=O)[C@H](CCCCN)NC(=O)[C@H](CCC(=O)O)NC(=O)[C@H](C)NC(=O)[C@@H](NC(=O)[C@H](CCCCN)NC(=O)[C@H](CC(=O)O)NC(=O)[C@H](Cc1ccc(O)cc1)NC(=O)[C@H](Cc1ccccc1)NC(=O)[C@H](C)NC(=O)[C@H](CCCCN)NC(=O)[C@H](CC(C)C)NC(=O)[C@H](Cc1c[nH]c2ccccc12)NC(=O)[C@@H](N)CC(=O)O)C(C)C)C(=O)N[C@@H](CCCCN)C(=O)N[C@@H](C)C(=O)N[C@@H](Cc1ccccc1)C(=O)N[C@@H](Cc1ccc(O)cc1)C(=O)N[C@@H](CC(=O)O)C(=O)N[C@@H](CCCCN)C(=O)N[C@H](C(=O)N[C@@H](C)C(=O)N[C@@H](CCC(=O)O)C(=O)N[C@@H](CCCCN)C(=O)N[C@@H](CC(C)C)C(=O)N[C@@H](CCCCN)C(=O)N[C@@H](CCC(=O)O)C(=O)N[C@@H](C)C(=O)N[C@@H](Cc1ccccc1)C(=O)O)C(C)C [L-37pA] (H-DWLKAFYDKVAEKLKEAFPDWLKAFYDKVAEKLKEAF-OH; N-terminus and C-terminus assumed) |  |  |  |  |  |  |  |  |  |  |  |  | 4.3%±0.04 | 6.1%±0.2
3 | CC(C)C[C@@H](NC(=O)[C@@H](Cc1c[nH]c2ccccc12)NC(=O)[C@H](N)CC(=O)O)C(=O)N[C@H](CCCCN)C(=O)N[C@H](C)C(=O)N[C@H](Cc1ccccc1)C(=O)N[C@H](Cc1ccc(O)cc1)C(=O)N[C@H](CC(=O)O)C(=O)N[C@H](CCCCN)C(=O)N[C@@H](C(=O)N[C@H](C)C(=O)N[C@H](CCC(=O)O)C(=O)N[C@H](CCCCN)C(=O)N[C@H](CC(C)C)C(=O)N[C@H](CCCCN)C(=O)N[C@H](CCC(=O)O)C(=O)N[C@H](C)C(=O)N[C@H](Cc1ccccc1)C(=O)N1CCC[C@@H]1C(=O)N[C@H](CC(=O)O)C(=O)N[C@H](Cc1c[nH]c2ccccc12)C(=O)N[C@H](CC(C)C)C(=O)N[C@H](CCCCN)C(=O)N[C@H](C)C(=O)N[C@H](Cc1ccccc1)C(=O)N[C@H](Cc1ccc(O)cc1)C(=O)N[C@H](CC(=O)O)C(=O)N[C@H](CCCCN)C(=O)N[C@@H](C(=O)N[C@H](C)C(=O)N[C@H](CCC(=O)O)C(=O)N[C@H](CCCCN)C(=O)N[C@H](CC(C)C)C(=O)N[C@H](CCCCN)C(=O)N[C@H](CCC(=O)O)C(=O)N[C@H](C)C(=O)N[C@H](Cc1ccccc1)C(=O)O)C(C)C)C(C)C [D-37pA] (H-[dD][dW][dL][dK][dA][dF][dY][dD][dK][dV][dA][dE][dK][dL][dK][dE][dA][dF][dP][dD][dW][dL][dK][dA][dF][dY][dD][dK][dV][dA][dE][dK][dL][dK][dE][dA][dF]-OH; N-terminus and C-terminus assumed) |  |  |  |  |  |  |  |  |  |  |  |  | 5.7%±0.1 | 6.6%±0.1
